# In patent publication US6413764B1, “Human metabotropic glutamate receptors, nucleic acids encoding same and uses thereof” (Merck & Co., Inc., priority 1993, dated 2002):
# Tests used:
# [1] = test system: olfactory cyclic nucleotide-gated channel; assay: Single-cell video imaging of [Ca++]i in HEK293 cells transfected with pCMV-OCNA; assay type: cell-based; conditions: 1 mM IBMX
# Method: The transfectants were also analyzed by single-cell video imaging of internal calcium levels ([Ca^++]i). This method allows analysis of cyclic nucleotide-gated channel activity by measurement of intracellular calcium levels, which change with the amount of calcium influx through the channel, as regulated by cyclic nucleotide activation of the channel. The imaging assay was conducted essentially as described in Example 3.C.1.b., with some modifications. After dye loading, the cells were examined using a Zeiss Axiovert microscope and 100 W mercury lamp, a Dage intensified CCD camera, and Image-1 hardware and software for image processing. The software controlled the alternate excitation of the cells at 350 and 385 nm (typically every 5 seconds) through a 20×1.3 N.A. oil immersion objective. Light emitted at greater than 510 nm was collected by the CCD camera, digitized, and 350 and 385 nm excitation images were background-subtracted before calculating the 350/385 nm intensity ratio.
# For quantitative analysis, the average 350/385 ratio value in a 12 by 12 pixel region over each cell was calculated by the software for each ratio image in an experiment and imported into a spreadsheet for further analysis and graphing. […]
# In these experiments, the HEK293 cell transfectants were exposed to agents which increase intracellular cAMP levels and monitored for subsequent changes in [Ca^++]i. […]
# human mGluR5a receptor [2] = target: T1, human mGluR5a receptor (Homo sapiens, UniProt P41594); assay: Automated fluorescence assay (fluo-3) in transiently transfected HEK 293 cells; assay type: cell-based; parameters: expressed in transfected cells; host or cells: HEK 293 cells, transient CaPO4 transfection; conditions: cells transfected with mGluR5a2
# T1 sequence (P41594 21-1180 isoform P41594-2 limits assumed): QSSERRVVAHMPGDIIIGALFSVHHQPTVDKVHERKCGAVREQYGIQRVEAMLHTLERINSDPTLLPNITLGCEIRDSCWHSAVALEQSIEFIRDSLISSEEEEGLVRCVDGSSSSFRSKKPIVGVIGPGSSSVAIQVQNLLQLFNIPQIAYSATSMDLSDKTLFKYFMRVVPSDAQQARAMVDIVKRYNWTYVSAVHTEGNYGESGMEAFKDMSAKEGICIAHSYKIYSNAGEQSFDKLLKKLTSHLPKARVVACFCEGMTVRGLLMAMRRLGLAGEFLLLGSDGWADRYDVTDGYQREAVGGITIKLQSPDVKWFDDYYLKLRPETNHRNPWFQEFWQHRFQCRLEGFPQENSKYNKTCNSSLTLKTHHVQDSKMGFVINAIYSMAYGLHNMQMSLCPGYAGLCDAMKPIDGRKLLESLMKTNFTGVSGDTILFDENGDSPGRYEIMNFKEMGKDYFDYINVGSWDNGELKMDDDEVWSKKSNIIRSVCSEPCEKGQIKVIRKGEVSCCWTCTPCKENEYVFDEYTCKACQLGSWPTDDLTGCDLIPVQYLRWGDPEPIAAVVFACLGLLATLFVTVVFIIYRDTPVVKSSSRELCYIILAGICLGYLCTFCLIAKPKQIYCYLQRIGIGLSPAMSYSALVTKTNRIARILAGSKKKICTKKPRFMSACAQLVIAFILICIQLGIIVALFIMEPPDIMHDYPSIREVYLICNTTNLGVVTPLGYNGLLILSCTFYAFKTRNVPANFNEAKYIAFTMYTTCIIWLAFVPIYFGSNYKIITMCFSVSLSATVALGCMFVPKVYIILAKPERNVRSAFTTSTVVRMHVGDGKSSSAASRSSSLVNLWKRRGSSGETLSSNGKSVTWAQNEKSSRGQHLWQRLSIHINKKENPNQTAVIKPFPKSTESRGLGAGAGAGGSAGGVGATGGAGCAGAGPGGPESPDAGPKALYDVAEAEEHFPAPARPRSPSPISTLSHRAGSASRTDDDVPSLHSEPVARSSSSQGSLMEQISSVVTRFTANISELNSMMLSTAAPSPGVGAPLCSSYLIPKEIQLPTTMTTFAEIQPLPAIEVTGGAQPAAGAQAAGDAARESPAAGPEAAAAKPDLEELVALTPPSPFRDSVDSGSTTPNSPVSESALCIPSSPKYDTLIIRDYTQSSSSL
# Method: HEK 293 cells were transiently transfected with DNA encoding mGluR5a (constructs mGluR5a2 and mGluR5a3 and construct MMTV-hmGluR5a) receptors. Approximately 2×10^6 HEK cells were transiently transfected with 5-18 μg (or 0.18 μg in some transfections, see Example 3.C.2.) of the indicated plasmid according to standard CaPO4 transfection procedures [see Wigler et al. (1979) Proc. Natl. Acad. Sci. USA 76:1373-1376]. In addition, 0.5-2 μg (or 0.18 μg in some transfections, see Example 3.C.2) of plasmid pCMVβgal (Clontech Laboratories, Palo Alto, Calif.), which contains the Escherichia coli β-galactosidase gene fused to the CMV promoter, were co-transfected as a reporter gene for monitoring the efficiency of transfection. The transfectants were analyzed for β-galactosidase expression by direct staining of the product of a reaction involving β-galactosidase and the X-gal substrate [Jones (1986) EMBO 5:3133-3142]. Transfectants can also be analyzed for β-galactosidase expression by measurement of β-galactosidase activity [Miller (1972) in Experiments in Molecular Genetics, pp.352-355, Cold Spring Harbor Press].
# HEK 293 cells that were transiently transfected with 5 μg of MMTV-hmGluR5A were co-transfected with 5 μg of pRShGR (ATCC accession no. 67200) which contains DNA encoding a glucocorticoid receptor operatively linked to the Rous Sarcoma virus (RSV) LTR promoter. Co-expression of glucocorticoid receptors in these cells should insure that induction of expression of the MMTV promoter-mGluR5a DNA occurs upon addition of glucocorticoid (e.g., dexamethasone) to the cells.
# Untransfected HEK 293 cells (or HEK 293 cells transiently transfected with pCMV-T7-3) and HEK 293 cells that had been transfected with mGluR5a-encoding DNA were plated in the wells of a 96-well microtiter dish (Nunc Catalog No. 1-6708, distributed by Alameda Industries, Escondido, Calif.) that had been precoated with poly-L-lysine at a density of 2×10^5 cells/well and loaded with fluo-3 by incubation for 2 hours at 20° C. in a medium containing 20 μM fluo-3, 0.2% Pluronic F-127 in HBS (125 mM NaCl, 5 mM KCl, 1.8 mM CaCl2, 0.62 MM MgCl2, 20 mM glucose, 20 mM HEPES, pH 7.4). The cells were then washed with assay buffer (i.e. HBS). The microtiter dish was then placed into a fluorescence plate reader (e.g., Fluoroskan II, Lab Products International, Ltd., Raleigh, N.C.), and the basal fluorescence of each well was measured and recorded before addition of metabotropic receptor-modulating compounds such as quisqualate, glutamate, trans-ACPD (1-amino-cyclopentane-1,3-dicarboxylic acid), 1S,3R-ACPD, AP3 (2-amino-3-phosphonopropionate) AP5 (2-amino-5-phosphonopentanoate), and CNQX (6-cyano-7-nitroquinoxaline-2,3-dione) to the wells. The fluorescence of the wells was monitored repeatedly (75 readings at 0.63-sec intervals) following addition of agonist.
# [3] = test system: endogenous G-protein-coupled muscarinic acetylcholine receptors; assay: Fluorescence imaging assay (fura-2), response to muscarinic agonist; assay type: cell-based, human; conditions: 1 mM; transfectants and untransfected HEK 293 cells
# Method: HEK 293 cells that had been transiently transfected with mGluR5a3 and untransfected HEK 293 cells (control) were analyzed by digital video imaging in order to visualize metabotropic receptor-mediated changes in intracellular Ca^++ concentration. Transfectants (4×10^5 cells per 35-mm culture dish with glass-insert bottom) were loaded with fura-2 by exposing the cells to 1 μM fura-2 (acetoxymethyl ester) for 25 min at room temperature in the dark. The cells were then washed three times with DMEM and four times with Ringer's (160 mM NaCl, 5 mM KCl, 2 mM CaCl2, 1 mM MgCl2, 11 mM glucose, 5 mM HEPES, pH 7.3) solution.
# The transfectants and untransfected cells were then placed on the stage of an Axiovert 100 TV inverted microscope (Zeiss, Oberkochren, Germany) equipped with a 150 W xenon lamp as the UV light source. […]
# The uncalibrated fura-2 ratios were used to generate pseudocolor images with purple corresponding to resting intracellular Ca^++ concentration (˜100 nM) and red to high intracellular Ca^++ concentration (˜1 μM). For quantitative analysis, the average ratio value in a 12-by-12 pixel region over each cell was calculated by the software for each ratio image in an experiment and imported into a spreadsheet for further analysis and graphing.
# human mGluR5a receptor [4] = target: T1, human mGluR5a receptor; assay: [3H]-glutamate binding to membranes of HEK 293 cells transfected with mGluR5a3; parameters: expressed in transfected cells; host or cells: HEK 293 cells, transient CaPO4 transfection; conditions: 200 μg of membranes, 100 nM [3H]-glutamate
# Method: In order to prepare membranes from HEK 293 cells transfected. with mGluR5a-encoding DNA or pUC19 (negative control), cells were scraped from the tissue culture plates, and the plates rinsed with 5 ml of PBS (phosphate-buffered saline: 137 mM NaCl, 2.7 mM KCl, 10 mM Na2HPO4, 1.7 mM KH2PO4). The cells were centrifuged at low speed in a table-top centrifuge, and the cell pellet was rinsed with PBS. The cell pellet was resuspended in 20 volumes of 50 mM Tris-HCl containing 0.5 mM PMSF, pH 7.6. The cells were homogenized on ice in a Dounce (teflon/glass) homogenizer using 10-20 strokes. The homogenate was centrifuged at 120,000×g for 30 min. at 4° C. The final membrane pellet was resuspended in 50 mM Tris-HCl containing 0.5 mM PMSF, pH 7.6. […] The protein concentration was determined using the method of Bradford [(1976) Anal. Biochem. 72:248).
# Specific binding of [^3H]-glutamate to membranes prepared from HEK 293 cells transfected with mGluR5a-encoding DNA or pUC19 was determined essentially as described for measuring binding to rat brain membranes with minor modifications. […] NMDA, AMPA and kainate were excluded from the assay mixture when HEK 293 cell membranes were being analyzed for [^3H]-glutamate binding.
# Specific binding of [^3H]-glutamate to membranes prepared from HEK 293 cells transfected with mGluR5a3 or pUC19 was measured using 200 μg of membranes and 100 nM [^3H]-glutamate.
# [5] = target: olfactory cyclic nucleotide-gated channel (Rattus norvegicus, UniProt Q00195); conditions: 1 mM cAMP; membrane potential ramped from −100 to +100 mV in 2 seconds; one patch
# olfactory cyclic nucleotide-gated channel (Rattus norvegicus, UniProt Q00195), sequence (Q00195 whole entry): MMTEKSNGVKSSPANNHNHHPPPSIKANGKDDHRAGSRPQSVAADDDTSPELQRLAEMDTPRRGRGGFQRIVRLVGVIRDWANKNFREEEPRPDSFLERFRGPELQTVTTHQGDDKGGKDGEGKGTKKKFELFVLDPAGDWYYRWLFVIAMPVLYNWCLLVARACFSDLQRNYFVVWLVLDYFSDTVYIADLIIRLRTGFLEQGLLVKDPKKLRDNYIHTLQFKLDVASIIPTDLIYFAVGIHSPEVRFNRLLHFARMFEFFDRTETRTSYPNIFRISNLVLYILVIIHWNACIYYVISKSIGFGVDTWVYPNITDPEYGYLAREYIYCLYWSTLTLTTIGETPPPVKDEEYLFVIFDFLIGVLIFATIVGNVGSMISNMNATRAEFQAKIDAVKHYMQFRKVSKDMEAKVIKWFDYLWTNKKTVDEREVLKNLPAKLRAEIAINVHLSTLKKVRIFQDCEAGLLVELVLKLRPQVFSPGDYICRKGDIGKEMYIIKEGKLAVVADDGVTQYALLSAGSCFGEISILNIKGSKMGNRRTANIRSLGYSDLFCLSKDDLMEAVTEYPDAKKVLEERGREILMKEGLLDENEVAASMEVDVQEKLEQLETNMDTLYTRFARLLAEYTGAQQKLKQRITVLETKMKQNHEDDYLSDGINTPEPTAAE
# Method: HEK293 cells were grown in monolayers (approximately 2×10^6 cells per 10 cm poly-D-lysine-coated plate) in Dulbecco's modified Eagle's medium (DMEM; Gibco) containing 5% defined supplemented calf serum (Hyclone) including 100 U/ml penicillin and 100 μg/ml streptomycin sulfate. […] Transfection efficiencies, as determined by measuring β-galactosidase activity, were 50-70%.
# HEK cells transfected with olfactory cyclic nucleotide-gated channel DNA were incubated 24-48 hours before testing for function. The activity of the channels was first assessed electrophysiologically using inside-out membrane patches pulled from the transfected cells so that the concentration of cAMP reaching the cytoplasmic face could be controlled (see, e.g., Single-Channel Recording, Sakmann and Neher, eds., Plenum Press, N.Y. (1983)). […]
# human mGluR5a receptor [6] = target: T1, human mGluR5a receptor; assay: Phosphatidylinositol hydrolysis (IP1) assay in HEK 293 cells transiently transfected with mGluR5a3; assay type: cell-based; parameters: expressed in transfected cells; host or cells: HEK 293 cells, transient CaPO4 transfection; conditions: 1 mM AP3
# Method: HEK 293 cells that had been transiently transfected with mGluR5a3 were plated in 24-well microtiter plates at a density of 8×10^5 cells/well. After the cells were allowed to settle and adhere to the bottom of the plate for a few hours, 2 μCi of [^3H]-myo-inositol (Amersham catalog # PT6-271, Arlington Heights, Ill.; specific activity=17.7 Ci/mmol) was added to each well and incubated overnight at 37° C. The next day, the cells were examined under a Nikon Diaphot inverted microscope to assess the health of the cells morphologically as well as to determine if the wells contained a confluent layer of cells. Media was then aspirated and the cells were washed twice with 0.5 ml Krebs bicarbonate buffer [117.9 mM NaCl, 4.72 mM KCl, 2.54 mM CaCl2, 1.18 mM MgSO4, 1.19 mM KH2PO4, 25 mM NaHCO3, 11.1 mM dextrose (equilibrated with 95% O2, 5% CO2, pH 7.4)]. The cells were incubated for 45 min. at room temperature. The buffer was then aspirated from each well and the cells were washed and incubated in 0.5 ml/well for 45 min at room temperature. The buffer was aspirated from each well, and the cells were then incubated for 20 min at 37° C. with 450 μl Krebs-bicarbonate buffer containing 10 mM LiCl instead of 10 mM NaCl (to block hydrolysis of IP1 to inositol and inorganic phosphate) and 10 mM unlabeled myo-inositol.
# To begin treatment of the cells with metabotropic receptor-modulating compounds, 50 μl of Krebs-bicarbonate buffer (control) or 10× the final concentration of the compound was added to each well and the incubation was continued for 40 min. Incubation was terminated by addition of 1 ml ice-cold methanol to each well.
# In order to isolate IP1 from the cells, the cells were removed from the plates by scraping with plastic pipette tips, and the cell suspension was transferred to 12×75 mm glass tubes. The tubes were thoroughly vortexed, and a 150-μl aliquot, i.e., one-tenth of the total volume, of each reaction mixture was transferred to another tube for protein determination. The water-soluble inositol phosphates were separated from the radiolabelled membrane phospholipids by extraction in 1 ml chloroform. The tubes were incubated at room temperature for 30 min before centrifugation at 500×g for 5 min at 4° C. The aqueous (top) layer containing the [^3H]-inositol phosphates was transferred to 10-ml syringes connected to Accell QMA SEP-PAK columns (Millipore; Calif.), which were attached to an Amersham Superseparator apparatus that was modified to allow collection into 20-ml scintillation vials. Water (10 ml) was added to the cartridge to remove [^3H]-inositol precursor, followed by 4 ml 0.02 M triethylammonium hydrogen carbonated buffer (TEAB, Fluka; N.Y.). To separately remove [^3H]-IP1, [^3H]-IP2 and [^3H]-IP3 from the cartridge, 4 ml of 0.1 M TEAB, 4 ml of 0.3 M TEAB and 4 ml of 0.4 M TEAB were sequentially added to the cartridge and the separate eluate fractions were collected in large scintillation vials. Ecolume cocktail (15 ml; ICN; California) was added to each vial for subsequent scintillation counting to determine the amount of each IP in the separate fractions. Protein concentration was determined using the Bio-Rad Protein Micro-Assay (Bio-Rad, Richmond, Calif.).
compound,measurement,setting,value
"CC(C)Cn1c(=O)n(C)c(=O)c2[nH]cnc21 [IBMX, 3-isobutyl-1-methylxanthine]",change in [Ca++]i,[1],more significant increase
"N#Cc1cc2c(cc1[N+](=O)[O-])=NC(=O)C(=O)N=2 [CNQX, 6-cyano-7-nitroquinoxaline-2,3-dione]","inhibition of glutamate-, quisqualate- or trans-ACPD-stimulated fluorescence increases",human mGluR5a receptor [2],"Neither of these compounds (AP3, AP5 or CNQX) inhibited"
C[N+](C)(C)CCOC(N)=O.[Cl-] [carbamylcholine],intracellular Ca++ concentration change,[3],detectable increase in the intracellular Ca^++ concentration of the majority of the cells
"NC(CCCP(=O)(O)O)C(=O)O (centres unmarked) [AP5, 2-amino-5-phosphonopentanoate]","inhibition of glutamate-, quisqualate- or trans-ACPD-stimulated fluorescence increases",human mGluR5a receptor [2],"Neither of these compounds (AP3, AP5 or CNQX) inhibited"
[^3H]-glutamate,specific binding versus membranes of pUC19-transfected cells,human mGluR5a receptor [4],significantly higher
"Nc1ncnc2c1ncn2[C@@H]1O[C@@H]2COP(=O)(O)O[C@H]2[C@H]1O [cAMP, cyclic AMP]",current in inside-out patch,[5],a current was elicited
"NC(CP(=O)(O)O)C(=O)O (centres unmarked) [AP3, 2-amino-3-phosphonopropionate]",effect on quisqualate-induced increase in IP1 levels,human mGluR5a receptor [6],not affected
same,"inhibition of glutamate-, quisqualate- or trans-ACPD-stimulated fluorescence increases",human mGluR5a receptor [2],"Neither of these compounds (AP3, AP5 or CNQX) inhibited"
